According to ChEMBL document CHEMBL2040781, “Design, synthesis, and biological evaluation of chromone-based p38 MAP kinase inhibitors” (J Med Chem, 2011):

biological target: Mitogen-activated protein kinase 14 (Homo sapiens, UniProt Q16539); assay: Inhibition of p38alpha MAPK after 40 mins by scintillation counting
Sequence (Q16539 whole entry): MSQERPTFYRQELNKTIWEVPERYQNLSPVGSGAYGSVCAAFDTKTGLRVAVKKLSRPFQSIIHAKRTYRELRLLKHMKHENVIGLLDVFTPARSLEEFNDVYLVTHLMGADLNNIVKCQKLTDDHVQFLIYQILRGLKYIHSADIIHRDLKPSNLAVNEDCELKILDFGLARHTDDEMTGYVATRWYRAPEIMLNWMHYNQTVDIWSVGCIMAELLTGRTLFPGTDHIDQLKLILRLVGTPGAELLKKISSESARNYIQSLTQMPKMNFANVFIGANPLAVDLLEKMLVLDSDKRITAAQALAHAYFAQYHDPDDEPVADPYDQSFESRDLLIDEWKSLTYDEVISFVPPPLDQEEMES

Compound | IC50
O=c1c(-c2ccc(F)cc2)c(-c2ccncc2)oc2ccccc12 | 813 nM
O=c1c(-c2ccc(F)cc2)c(-c2ccnc(NCc3ccccc3)c2)oc2ccccc12 | 35 nM
CN(C)CCCNc1cc(-c2oc3ccccc3c(=O)c2-c2ccc(F)cc2)ccn1 | 761 nM
COCCCNc1cc(-c2oc3ccccc3c(=O)c2-c2ccc(F)cc2)ccn1 | 39 nM
O=c1c(-c2ccc(F)cc2)c(-c2ccnc(NC3CCOCC3)c2)oc2ccccc12 | 45 nM
O=c1c(-c2ccc(F)cc2)c(-c2ccnc(Cl)c2)oc2ccccc12 | 1380 nM
CCCCNc1cc(-c2oc3ccccc3c(=O)c2-c2ccc(F)cc2)ccn1 | 21 nM
